In patent publication US9708334B2, “Substituted 2,4,5,6-tetrahydropyrrolo[3,4-c]pyrazole and 4,5,6,7-tetrahydro-2H-pyrazolo[4,3-c]pyridine compounds as GlyT1 inhibitors” (DART NEUROSCIENCE (CAYMAN) LTD., priority 2014, dated 2017):

Target: T1, GlyT1 (Homo sapiens, UniProt P48067)
T1 construct: expressed in transfected cells
T1 sequence (P48067 1-706): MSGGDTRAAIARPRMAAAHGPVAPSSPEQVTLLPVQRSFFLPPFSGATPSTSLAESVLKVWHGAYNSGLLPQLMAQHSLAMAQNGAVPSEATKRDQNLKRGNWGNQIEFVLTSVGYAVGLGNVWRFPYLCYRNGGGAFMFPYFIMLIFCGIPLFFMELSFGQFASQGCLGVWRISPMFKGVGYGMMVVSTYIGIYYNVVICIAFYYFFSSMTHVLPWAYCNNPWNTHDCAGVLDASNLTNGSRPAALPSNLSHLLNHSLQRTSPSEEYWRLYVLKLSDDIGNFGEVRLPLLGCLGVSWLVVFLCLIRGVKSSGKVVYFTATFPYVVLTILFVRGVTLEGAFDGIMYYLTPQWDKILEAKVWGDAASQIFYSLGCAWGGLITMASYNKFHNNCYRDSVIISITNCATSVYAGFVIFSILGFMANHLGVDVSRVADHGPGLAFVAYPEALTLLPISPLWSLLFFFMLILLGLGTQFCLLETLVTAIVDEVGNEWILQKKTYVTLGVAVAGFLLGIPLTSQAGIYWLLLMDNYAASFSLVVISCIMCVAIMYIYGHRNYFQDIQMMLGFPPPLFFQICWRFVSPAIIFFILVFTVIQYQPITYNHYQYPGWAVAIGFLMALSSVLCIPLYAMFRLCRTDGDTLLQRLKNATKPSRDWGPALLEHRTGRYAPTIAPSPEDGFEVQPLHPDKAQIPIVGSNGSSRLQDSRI
Assay: Glycine Transporter 1 (GlyT1) uptake assay, scintillation proximity assay of [14C]-glycine uptake
Assay type: cell-based
Conditions: SPA, four parameter logistic fit, read-out: GlyT1 (pIC50) (converted)
Procedure, shortened: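 [14C]-glycine uptake read by scintillation proximity on a plate counter. IC50 from four-parameter logistic fit of dose-response data.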

Structure (SMILES)	IC50
C[C@H](Oc1ccc(S(C)(=O)=O)cc1C(=O)N1Cc2cn(-c3cccc(F)c3Cl)nc2C1)C(F)(F)F [Example 147, 2-(2-Chloro-3-fluorophenyl)-5-(5-methanesulfonyl-2-{[(2S)-1 1 1-trifluoropropan-2-yl]oxy}benzoyl)-2H 4H 5H 6H-pyrrolo[3,4-c]pyrazole]	< 100 nM
CC(C)Oc1ccc(S(C)(=O)=O)cc1C(=O)N1Cc2cn(-c3cccc(Cl)c3F)nc2C1 [Example 148, 2-(3-Chloro-2-fluorophenyl)-5-[5-methanesulfonyl-2-(propan-2-yloxy)benzoyl]-2H 4H 5H 6H-pyrrolo[3,4-c]pyrazole]	< 100 nM
CC(C)Oc1ccc(S(C)(=O)=O)cc1C(=O)N1Cc2cn(-c3cccc(F)c3Cl)nc2C1 [Example 149, 2-(2-Chloro-3-fluorophenyl)-5-[5-methanesulfonyl-2-(propan-2-yloxy)benzoyl]-2H 4H 5H 6H-pyrrolo[3,4-c]pyrazole]	< 100 nM
CCS(=O)(=O)c1ccc(O[C@@H](C)C(F)(F)F)c(C(=O)N2Cc3cn(-c4cccc(Cl)c4F)nc3C2)c1 [Example 150, 2-(3-Chloro-2-fluorophenyl)-5-[5-(ethanesulfonyl)-2-{[(2S)-1 1 1-trifluoropropan-2-yl]oxy}benzoyl]-2H 4H 5H 6H-pyrrolo[3,4-c]pyrazole]	< 100 nM
CCS(=O)(=O)c1ccc(O[C@@H](C)C(F)(F)F)c(C(=O)N2Cc3cn(-c4cccc(F)c4Cl)nc3C2)c1 [Example 151, 2-(2-Chloro-3-fluorophenyl)-5-[5-(ethanesulfonyl)-2-{[(2S)-1 1 1-trifluoropropan-2-yl]oxy}benzoyl]-2H 4H 5H 6H-pyrrolo[3,4-c]pyrazole]	< 100 nM
CS(=O)(=O)c1ccc(-c2cccc(F)c2)c(C(=O)N2Cc3cn(-c4ccccn4)nc3C2)c1 [Example 152, 2-{5-[2-(3-Fluorophenyl)-5-methanesulfonylbenzoyl]-2H 4H 5H 6H-pyrrolo[3,4-c]pyrazol-2-yl}pyridine]	< 100 nM
CC(Oc1ccc(C#N)c(Cl)c1C(=O)N1CCc2nn(-c3cncc(F)c3)cc2C1)C(F)(F)F (centres unmarked) [Example 153, 2-Chloro-3-[2-(5-fluoropyridin-3-yl)-2H 4H 5H 6H 7H-pyrazolo[4,3-c]pyridine-5-carbonyl]-4-[(1 1 1-trifluoropropan-2-yl)oxy]benzonitrile]	< 100 nM
COc1c(C#N)ccc(OC(C)C(F)(F)F)c1C(=O)N1CCc2nn(-c3cncc(F)c3)cc2C1 (centres unmarked) [Example 154, 3-[2-(5-Fluoropyridin-3-yl)-2H 4H 5H 6H 7H-pyrazolo[4,3-c]pyridine-5-carbonyl]-2-methoxy-4-[(1 1 1-trifluoropropan-2-yl)oxy]benzonitrile]	< 100 nM
N#Cc1ccc(OCC(F)(F)F)c(C(=O)N2CCc3nn(-c4ccncc4)cc3C2)c1Cl [Example 155, 2-Chloro-3-[2-(pyridin-4-yl)-2H 4H 5H 6H 7H-pyrazolo[4,3-c]pyridine-5-carbonyl]-4-(2 2 2-trifluoroethoxy)benzonitrile]	100 to 1000 nM
COc1c(C#N)ccc(OCC(F)(F)F)c1C(=O)N1CCc2nn(-c3ccncc3)cc2C1 [Example 156, 2-Methoxy-3-[2-(pyridin-4-yl)-2H 4H 5H 6H 7H-pyrazolo[4,3-c]pyridine-5-carbonyl]-4-(2 2 2-trifluoroethoxy)benzonitrile]	< 100 nM
Cn1ncc2c1CN(C(=O)c1cc(S(C)(=O)=O)ccc1OCC1CC1)C2 [Example 157, 5-[2-(Cyclopropylmethoxy)-5-methanesulfonylbenzoyl]-1-methyl-1H 4H 5H 6H-pyrrolo[3,4-c]pyrazole]	> 10000 nM
Cn1ncc2c1CCN(C(=O)c1cc(S(C)(=O)=O)ccc1OCC1CC1)C2 [Example 158, 5-[2-(Cyclopropylmethoxy)-5-methanesulfonylbenzoyl]-1-methyl-1H 4H 5H 6H 7H-pyrazolo[4,3-c]pyridine]	> 10000 nM
CS(=O)(=O)c1ccc(OCC2CC2)c(C(=O)N2Cc3cnn(-c4cccc(C(F)(F)F)c4)c3C2)c1 [Example 159, 5-[2-(Cyclopropylmethoxy)-5-methanesulfonylbenzoyl]-1-[3-(trifluoromethyl)phenyl]-1H 4H 5H 6H-pyrrolo[3,4-c]pyrazole]	1000 to 10000 nM
CS(=O)(=O)c1ccc(OCC2CC2)c(C(=O)N2CCc3c(cnn3-c3cccc(C(F)(F)F)c3)C2)c1 [Example 160, 5-[2-(Cyclopropylmethoxy)-5-methanesulfonylbenzoyl]-1-[3-(trifluoromethyl)phenyl]-1H 4H 5H 6H 7H-pyrazolo[4,3-c]pyridine]	1000 to 10000 nM
CC(Oc1ccc(S(C)(=O)=O)cc1C(=O)N1CCc2c(cnn2C)C1)C(F)(F)F (centres unmarked) [Example 161, 5-{5-Methanesulfonyl-2-[(1 1 1-trifluoropropan-2-yl)oxy]benzoyl}-1-methyl-1H 4H 5H 6H 7H-pyrazolo[4,3-c]pyridine]	1000 to 10000 nM
CC(Oc1ccc(S(C)(=O)=O)cc1C(=O)N1CCc2c(cnn2-c2cccc(C(F)(F)F)c2)C1)C(F)(F)F (centres unmarked) [Example 162, 5-{5-Methanesulfonyl-2-[(1 1 1-trifluoropropan-2-yl)oxy]benzoyl}-1-[3-(trifluoromethyl)phenyl]-1H 4H 5H 6H 7H-pyrazolo[4,3-c]pyridine]	100 to 1000 nM
CC(Oc1ccc(S(C)(=O)=O)cc1C(=O)N1CCc2nn(-c3ccccc3)cc2C1)C(F)(F)F (centres unmarked) [Example 163, 5-{5-Methanesulfonyl-2-[(1 1 1-trifluoropropan-2-yl)oxy]benzoyl}-2-phenyl-2H 4H 5H 6H 7H-pyrazolo[4,3-c]pyridine]	100 to 1000 nM
CC(Oc1ccc(S(C)(=O)=O)cc1C(=O)N1CCc2c(cnn2-c2ccccc2)C1)C(F)(F)F (centres unmarked) [Example 164, 5-{5-Methanesulfonyl-2-[(1 1 1-trifluoropropan-2-yl)oxy]benzoyl}-1-phenyl-1H 4H 5H 6H 7H-pyrazolo[4,3-c]pyridine]	100 to 1000 nM
CS(=O)(=O)c1ccc(N2CCCCC2)c(C(=O)N2CCc3c(c(C(F)(F)F)nn3-c3ccccc3)C2)c1 [Example 165, 1-{4-Methanesulfonyl-2-[1-phenyl-3-(trifluoromethyl)-1H 4H 5H 6H 7H-pyrazolo[4,3-c]pyridine-5-carbonyl]phenyl}piperidine]	1000 to 10000 nM
Cc1nn(-c2ccccc2)c2c1CN(C(=O)c1cc(S(C)(=O)=O)ccc1N1CCCCC1)CC2 [Example 166, 1-(4-Methanesulfonyl-2-{3-methyl-1-phenyl-1H 4H 5H 6H 7H-pyrazolo[4,3-c]pyridine-5-carbonyl}phenyl)piperidine]	100 to 1000 nM
Cc1c2c(nn1-c1ccccc1)CCN(C(=O)c1cc(S(C)(=O)=O)ccc1N1CCCCC1)C2 [Example 167, 1-(4-Methanesulfonyl-2-{3-methyl-2-phenyl-2H 4H 5H 6H 7H-pyrazolo[4,3-c]pyridine-5-carbonyl}phenyl)piperidine]	100 to 1000 nM
CC(Oc1ccc(S(C)(=O)=O)cc1C(=O)N1CCc2c(c(C(F)(F)F)nn2-c2ccccc2)C1)C(F)(F)F (centres unmarked) [Example 168, 5-{5-Methanesulfonyl-2-[(1 1 1-trifluoropropan-2-yl)oxy]benzoyl}-1-phenyl-3-(trifluoromethyl)-1H 4H 5H 6H 7H-pyrazolo[4,3-c]pyridine]	1000 to 10000 nM
N#Cc1ccc(C2CCCC2)c(C(=O)N2CCc3nn(-c4ccccc4)cc3C2)c1 [Example 169, 4-Cyclopentyl-3-{2-phenyl-2H 4H 5H 6H 7H-pyrazolo[4,3-c]pyridine-5-carbonyl}benzonitrile]	100 to 1000 nM
